The pIC50 is the IC50 on a negative log10 scale, so that one unit is a factor of ten. Read a high pIC50 as a small IC50. In general, IC50 refers to the concentration that gives 50% inhibition.

pIC50: −log10 of the molar value. Bounds are passed on as bounds.

GST tagged IRAK-4, sequence (Q9NWZ3 whole entry): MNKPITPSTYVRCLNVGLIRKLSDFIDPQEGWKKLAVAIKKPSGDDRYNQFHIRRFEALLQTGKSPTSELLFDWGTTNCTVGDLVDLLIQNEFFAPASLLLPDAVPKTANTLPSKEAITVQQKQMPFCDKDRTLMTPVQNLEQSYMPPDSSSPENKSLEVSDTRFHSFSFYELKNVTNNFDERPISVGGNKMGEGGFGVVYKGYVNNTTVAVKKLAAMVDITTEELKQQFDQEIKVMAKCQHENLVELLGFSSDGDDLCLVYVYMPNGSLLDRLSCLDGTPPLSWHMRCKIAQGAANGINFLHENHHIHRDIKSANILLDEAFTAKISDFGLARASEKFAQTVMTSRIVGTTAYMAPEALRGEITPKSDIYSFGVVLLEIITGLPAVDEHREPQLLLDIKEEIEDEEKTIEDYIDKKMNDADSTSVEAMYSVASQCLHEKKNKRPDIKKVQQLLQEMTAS

One test has as its target GST tagged IRAK-4 (Homo sapiens (Human), UniProt Q9NWZ3). Put plainly: IRAK-4 Kinase Assay (IMAP fluorescence polarization). The test is classed as biochemical. The conditions noted are these: 100 μM ATP, 30 minutes at 25° C. The gist of the method: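 Activity was read by IMAP fluorescence polarization, where phosphopeptide binding to M(III) nanoparticles raises FP. The 30-minute, 25° C reaction used 100 μM ATP, 100 nM RP7030 substrate and 0.5 nM GST-IRAK-4 in pH 7.2 Tris buffer with MgCl2, DTT and Tween 20.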
Turning to `CS(=O)(=O)N1CCC(c2cc(NC(=O)c3cnn4cccnc34)n(-c3ccc(C4CC4)cn3)n2)CC1` [Example 149, N-(1-(5-cyclopropylpyridin-2-yl)-3-(1-(methylsulfonyl)piperidin-4-yl)-1H-pyrazol-5-yl)pyrazolo[1,5-a]pyrimidine-3-carboxamide], the pIC50 is above 7.00.

`Cc1ccc(-n2nc(-c3ccc(S(=O)(=O)C4CC4)cc3)cc2NC(=O)c2cnn3cccnc23)cc1` [Example 336, N-{3-[4-(cyclopropylsulfonyl)phenyl]-1-(4-methylphenyl)-1H-pyrazol-5-yl}pyrazolo[1,5-a]pyrimidine-3-carboxamide] showed a pIC50 above 7.00.

As for `Cc1ccc(-n2nc(-c3ccc(S(=O)(=O)N(C)C)cc3)cc2NC(=O)c2cnn3cccnc23)cc1` [Example 353, N-{3-[4-(dimethylsulfamoyl)phenyl]-1-(4-methylphenyl)-1H-pyrazol-5-yl}pyrazolo[1,5-a]pyrimidine-3-carboxamide], the pIC50 was above 7.00.

In turn, `Cc1ccc(-n2nc(-c3ccc(S(N)(=O)=O)cc3)cc2NC(=O)c2cnn3cccnc23)cc1` [Example 99, N-(3-(4-sulfamoylphenyl)-1-(p-tolyl)-1H-pyrazol-5-yl)pyrazolo[1,5-a]pyrimidine-3-carboxamide] gave a pIC50 above 7.00.

`Cc1ccc(-n2nc(C3=CCN(C)CC3)cc2NC(=O)c2cnn3cccnc23)cc1` [Example 140, N-(3-(1-methyl-1,2,3,6-tetrahydropyridin-4-yl)-1-(p-tolyl)-1H-pyrazol-5-yl)pyrazolo[1,5-a]pyrimidine-3-carboxamide] showed a pIC50 above 7.00.

With `Cc1ccc(-n2nc(C3CCN(C4CCC5CC54)CC3)cc2NC(=O)c2cnn3cccnc23)cc1` (stereo not shown) [Example 254, N-[3-(1-bicyclo[3.1.0]hex-2-ylpiperidin-4-yl)-1-(4-methylphenyl)-1H-pyrazol-5-yl]pyrazolo[1,5-a]pyrimidine-3-carboxamide], the pIC50 was above 7.00.

For `C[C@H](N)c1ccc(-n2nc(C3CCN(S(C)(=O)=O)CC3)cc2NC(=O)c2cnn3cccnc23)nc1` [Example 164, (S)—N-(1-(5-(1-aminoethyl)pyridin-2-yl)-3-(1-(methylsulfonyl)piperidin-4-yl)-1H-pyrazol-5-yl)pyrazolo[1,5-a]pyrimidine-3-carboxamide], the pIC50 was above 7.00.

The test is the same for the next values; noted with them: 100 μM ATP, 30 minutes at 25° C.; μM.
For `Cc1ccc(-n2nc(C3CCN(C4CN(C(=O)OC(C)C)C4)CC3)cc2NC(=O)c2cnn3cccnc23)cc1` [Example 240, 1-methylethyl 3-(4-{1-(4-methylphenyl)-5-[(pyrazolo[1,5-a]pyrimidin-3-ylcarbonyl)amino]-1H-pyrazol-3-yl}piperidin-1-yl)azetidine-1-carboxylate], the half-inhibitory concentration (IC50) was below 1 µM.

In turn, `Cc1ccc(-n2nc(C3CCN(Cc4ncco4)CC3)cc2NC(=O)c2cnn3cccnc23)cc1` [Example 232, N-{1-(4-methylphenyl)-3-[1-(1,3-oxazol-2-ylmethyl)piperidin-4-yl]-1H-pyrazol-5-yl}pyrazolo[1,5-a]pyrimidine-3-carboxamide] had an IC50 below 1 µM.

Compound `Cc1ccc(-n2nc(C3CCN(S(=O)(=O)C4CC4)CC3)cc2NC(=O)c2cnn3cccnc23)cc1` [Example 26, N-(3-(1-(cyclopropylsulfonyl)piperidin-4-yl)-1-(p-tolyl)-1H-pyrazol-5-yl)pyrazolo[1,5-a]pyrimidine-3-carboxamide] came in with an IC50 below 1 µM.

With `Cc1ccc(-n2nc(C3CCN(S(=O)(=O)C4CCCC4)CC3)cc2NC(=O)c2cnn3cccnc23)cc1` [Example 25, N-(3-(1-(cyclopentylsulfonyl)piperidin-4-yl)-1-(p-tolyl)-1H-pyrazol-5-yl)pyrazolo[1,5-a]pyrimidine-3-carboxamide], the IC50 was below 1 µM.

For the compound `Cc1ccc(-n2nc(C3CCN(C4CN(S(=O)(=O)C(C)C)C4)CC3)cc2NC(=O)c2cnn3cccnc23)cc1` [Example 246, N-[3-(1-{1-[(1-methylethyl)sulfonyl]azetidin-3-yl}piperidin-4-yl)-1-(4-methylphenyl)-1H-pyrazol-5-yl]pyrazolo[1,5-a]pyrimidine-3-carboxamide], the IC50 is below 1 µM.

The compound `Cc1ccc(-n2nc(C3CCN(S(=O)(=O)c4cccc(C(F)(F)F)n4)CC3)cc2NC(=O)c2cnn3cccnc23)cc1` [Example 394, N-[1-(4-methylphenyl)-3-(1-{[6-(trifluoromethyl)pyridin-2-yl]sulfonyl}piperidin-4-yl)-1H-pyrazol-5-yl]pyrazolo[1,5-a]pyrimidine-3-carboxamide] returned an IC50 below 1 µM.

Compound `Cc1ccc(-n2nc(C3CCN(S(=O)(=O)c4ccc(F)cc4)CC3)cc2NC(=O)c2cnn3cccnc23)cc1` [Example 366, N-[3-{1[(4-fluorophenyl)sulfonyl]piperidin-4-yl}-1-(4-methylphenyl)-1H-pyrazol-5-yl]pyrazolo[1,5-a]pyrimidine-3-carboxamide] registered an IC50 below 1 µM.

`Cc1ccc(-n2nc(C3CN(Cc4cc(C)on4)C3)cc2NC(=O)c2cnn3cccnc23)cc1` [Example 311, N-[3-{1-[(5-methylisoxazol-3-yl)methyl]azetidin-3-yl]-1-(4-methylphenyl)-1H-pyrazol-5-yl}pyrazolo[1,5-a]pyrimidine-3-carboxamide] yielded an IC50 below 1 µM.

Consider `Cc1ccc(-n2nc(C3(C)CCN(S(C)(=O)=O)CC3)cc2NC(=O)c2cnn3cccnc23)cc1` [Example 92, N-(3-(4-methyl-1-(methylsulfonyl)piperidin-4-yl)-1-(p-tolyl)-1H-pyrazol-5-yl)pyrazolo[1,5-a]pyrimidine-3-carboxamide], for which the IC50 was above 1 µM.

Consider `Cc1ccc(-n2nc(C3(C)CC3)cc2NC(=O)c2cnn3cccnc23)nc1` [Example 181, N-(3-(1-methylcyclopropyl)-1-(5-methylpyridin-2-yl)-1H-pyrazol-5-yl)pyrazolo[1,5-a]pyrimidine-3-carboxamide], for which the IC50 was above 1 µM.

Consider `CN1CCC(c2cc(NC(=O)c3cnn4cccnc34)n(-c3ccc(Cl)cc3F)n2)CC1` [Example 50, N-(1-(4-chloro-2-fluorophenyl)-3-(1-methylpiperidin-4-yl)-1H-pyrazol-5-yl)pyrazolo[1,5-a]pyrimidine-3-carboxamide], for which the IC50 was below 1 µM.

Compound `Cc1ccc(-n2nc(C3CCCN(Cc4cscn4)C3)cc2NC(=O)c2cnn3cccnc23)cc1` (stereo not shown) [Example 288, N-{1-(4-methylphenyl)-3-[1-(1,3-thiazol-4-ylmethyl)piperidin-3-yl]-1H-pyrazol-5-yl}pyrazolo[1,5-a]pyrimidine-3-carboxamide] gave a half-inhibitory concentration (IC50) below 1 µM.

As to `Cc1ccccc1-n1nc(C2CCNCC2)cc1NC(=O)c1cnn2cccnc12` [Example 14, N-(3-(piperidin-4-yl)-1-(o-tolyl)-1H-pyrazol-5-yl)pyrazolo[1,5-a]pyrimidine-3-carboxamide], the IC50 was above 1 µM.

`Cc1ccc(-n2nc(C3CN(Cc4cnccn4)C3)cc2NC(=O)c2cnn3cccnc23)cc1` [Example 304, N-{1-(4-methylphenyl)-3-[1-(pyrazin-2-ylmethyl)azetidin-3-yl]-1H-pyrazol-5-yl}pyrazolo[1,5-a]pyrimidine-3-carboxamide] displayed an IC50 below 1 µM.

Regarding `O=C(Nc1cc(C2CCNCC2)nn1-c1ccc(Cl)cc1)c1cnn2cccnc12` [Example 9, N-(1-(4-chlorophenyl)-3-(piperidin-4-yl)-1H-pyrazol-5-yl)pyrazolo[1,5-a]pyrimidine-3-carboxamide], the IC50 was below 1 µM.

For the origin of these results see patent publication US9169260B2 (MERCK SHARP & DOHME CORP., priority 2011, dated 2015).
